From ChEMBL document CHEMBL1201862, “PubChem BioAssay data set” (2004)
Activity calls are given as the source filed them.

Assays:
Insulin-degrading enzyme = biological target: T1, Insulin-degrading enzyme (Homo sapiens, UniProt P14735); test: Dose Response: Fluorescence polarization-based cell-based high throughput dose response assay for inhibitors of insulin-degrading enzyme (IDE). [Related pubchem assays: 434962 (Primary screen (IDE inhibitors in singlicate)), 449730 (Counterscreen (Cytotoxicity in triplicate)), 435028 (Confirmation (IDE inhibitors in triplicate)), 434984 (Summary …; format: functional
T1 sequence (P14735 whole entry): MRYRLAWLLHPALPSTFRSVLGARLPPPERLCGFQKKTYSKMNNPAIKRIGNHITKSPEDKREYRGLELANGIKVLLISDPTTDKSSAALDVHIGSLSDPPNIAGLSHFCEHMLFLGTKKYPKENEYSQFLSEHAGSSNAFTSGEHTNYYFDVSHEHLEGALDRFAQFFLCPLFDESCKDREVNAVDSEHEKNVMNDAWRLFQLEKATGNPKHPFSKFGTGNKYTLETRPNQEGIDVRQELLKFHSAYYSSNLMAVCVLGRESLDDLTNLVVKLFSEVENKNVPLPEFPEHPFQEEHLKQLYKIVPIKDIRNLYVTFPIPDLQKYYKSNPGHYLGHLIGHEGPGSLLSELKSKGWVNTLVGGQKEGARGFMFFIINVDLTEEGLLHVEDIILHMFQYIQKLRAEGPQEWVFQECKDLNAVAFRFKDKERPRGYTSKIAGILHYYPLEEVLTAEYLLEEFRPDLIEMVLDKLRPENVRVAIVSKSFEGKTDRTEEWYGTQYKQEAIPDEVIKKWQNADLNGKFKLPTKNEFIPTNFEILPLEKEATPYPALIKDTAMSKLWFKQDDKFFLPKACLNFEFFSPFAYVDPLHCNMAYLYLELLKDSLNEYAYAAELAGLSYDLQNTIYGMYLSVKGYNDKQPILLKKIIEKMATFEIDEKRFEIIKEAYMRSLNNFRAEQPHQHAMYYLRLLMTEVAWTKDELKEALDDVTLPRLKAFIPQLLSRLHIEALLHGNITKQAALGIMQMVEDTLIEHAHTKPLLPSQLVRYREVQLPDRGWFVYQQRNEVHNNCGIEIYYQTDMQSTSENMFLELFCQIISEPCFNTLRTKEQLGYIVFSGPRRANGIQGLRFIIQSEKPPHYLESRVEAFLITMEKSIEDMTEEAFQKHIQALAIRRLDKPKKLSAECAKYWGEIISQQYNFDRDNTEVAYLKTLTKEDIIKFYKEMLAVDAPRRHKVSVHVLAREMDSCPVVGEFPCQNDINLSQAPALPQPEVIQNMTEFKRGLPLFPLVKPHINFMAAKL

[1] = Counterscreen for IDE inhibitors: Luminescence-based cell-based high throughput dose response assay to identify compounds that are cytotoxic to HEK cells. [Related pubchem assays: 434962 (Primary screen (IDE inhibitors in singlicate)), 449730 (Counterscreen (Cytotoxicity in triplicate)), 435028 (Confirmation (IDE inhibitors in triplicate)) …; format: functional; settings: HEK293
[2] = biological target: DNA dC->dU-editing enzyme APOBEC-3G (Homo sapiens, UniProt Q9HC16); format: functional;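 note: Dose-response counterscreen measuring inhibition of APOBEC3G DNA deaminase activity, run while confirming APOBEC3A inhibitors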
[3] = biological target: DNA dC->dU-editing enzyme APOBEC-3A (Homo sapiens, UniProt P31941); test: Dose Response confirmation of small molecule APOBEC3A DNA Deaminase Inhibitors via a fluorescence-based single-stranded DNA deaminase assay. [Related pubchem assays (depositor defined):AID493011, AID493024]; format: functional
[4] = biological target: Nucleotide-binding oligomerization domain-containing protein 1 (Homo sapiens, UniProt Q9Y239); test: NOD1 signaling inhibitors, SAR follow-up, revised (AID 2333); format: functional
Tumor necrosis factor = Tumor necrosis factor (Homo sapiens, UniProt P01375); test: TNFa-triggered NF-kB activation inhibitors, SAR follow-up, cell-based, revised (AID 2337); format: functional
[5] = biological target: Nucleotide-binding oligomerization domain-containing protein 2 (Homo sapiens, UniProt Q9HC29); test: PubChem AID 2334; format: functional
Sequence of Nucleotide-binding oligomerization domain-containing protein 2 (Q9HC29 whole entry, the tested form may be a part): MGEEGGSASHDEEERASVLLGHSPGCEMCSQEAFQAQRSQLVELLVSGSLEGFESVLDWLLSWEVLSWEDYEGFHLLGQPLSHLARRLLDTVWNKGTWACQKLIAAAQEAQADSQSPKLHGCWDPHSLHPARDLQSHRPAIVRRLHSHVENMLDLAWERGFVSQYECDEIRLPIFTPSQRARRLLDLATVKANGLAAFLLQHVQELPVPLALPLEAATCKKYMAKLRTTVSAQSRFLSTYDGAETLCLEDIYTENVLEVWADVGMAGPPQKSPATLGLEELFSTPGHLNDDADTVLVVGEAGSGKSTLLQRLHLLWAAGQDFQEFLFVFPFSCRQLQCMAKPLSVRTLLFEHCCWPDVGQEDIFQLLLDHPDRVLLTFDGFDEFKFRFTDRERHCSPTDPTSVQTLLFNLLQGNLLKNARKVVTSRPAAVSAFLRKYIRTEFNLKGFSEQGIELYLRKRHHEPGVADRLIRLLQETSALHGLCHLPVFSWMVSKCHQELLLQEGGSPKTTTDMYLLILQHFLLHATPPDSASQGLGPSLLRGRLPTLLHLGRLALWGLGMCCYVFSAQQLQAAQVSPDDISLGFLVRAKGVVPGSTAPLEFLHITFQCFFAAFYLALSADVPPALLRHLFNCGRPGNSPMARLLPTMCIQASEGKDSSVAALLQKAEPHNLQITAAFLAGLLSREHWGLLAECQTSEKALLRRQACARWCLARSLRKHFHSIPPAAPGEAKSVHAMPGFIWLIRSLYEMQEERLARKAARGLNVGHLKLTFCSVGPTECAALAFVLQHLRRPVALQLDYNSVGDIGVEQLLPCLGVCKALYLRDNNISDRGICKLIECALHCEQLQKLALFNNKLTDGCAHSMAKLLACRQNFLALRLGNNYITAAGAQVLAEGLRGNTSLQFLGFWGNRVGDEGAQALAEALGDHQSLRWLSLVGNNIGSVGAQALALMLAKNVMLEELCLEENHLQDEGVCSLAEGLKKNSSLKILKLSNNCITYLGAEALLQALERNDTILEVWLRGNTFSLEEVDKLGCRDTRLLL

HEK293 = test: cells; settings: Homo sapiens;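 note: cells exposed to compound for 14 hours overnight before viability readout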
Cytochrome P450 2D6 = Cytochrome P450 2D6 (Homo sapiens, UniProt P10635); test: qHTS Assay for Inhibitors and Substrates of Cytochrome P450 2D6. [Related pubchem assays: 410 ]; format: ADME; settings: read-out: Potency
Sequence of Cytochrome P450 2D6 (P10635 whole entry): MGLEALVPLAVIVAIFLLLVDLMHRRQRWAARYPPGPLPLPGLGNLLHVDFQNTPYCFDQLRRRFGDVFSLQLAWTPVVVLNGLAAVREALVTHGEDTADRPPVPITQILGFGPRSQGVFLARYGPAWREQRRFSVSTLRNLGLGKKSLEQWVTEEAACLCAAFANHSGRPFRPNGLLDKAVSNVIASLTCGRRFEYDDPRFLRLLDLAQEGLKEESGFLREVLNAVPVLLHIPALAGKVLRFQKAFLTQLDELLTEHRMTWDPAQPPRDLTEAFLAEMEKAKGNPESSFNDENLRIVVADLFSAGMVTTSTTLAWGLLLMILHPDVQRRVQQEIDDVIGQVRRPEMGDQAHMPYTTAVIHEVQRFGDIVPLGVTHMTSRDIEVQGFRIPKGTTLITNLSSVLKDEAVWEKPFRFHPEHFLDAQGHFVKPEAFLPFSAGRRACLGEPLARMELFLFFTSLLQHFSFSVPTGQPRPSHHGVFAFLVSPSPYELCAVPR

[6] = biological target: Metabotropic glutamate receptor 4 (Rattus norvegicus, UniProt P31423); test: Modulation of the Metabotropic Glutamate Receptor mGluR4: Rat PAM Potency. [Related pubchem assays (depositor defined):AID2437, AID2807]; format: functional
[7] = biological target: T2, Voltage-dependent T-type calcium channel subunit alpha-1H (Homo sapiens, UniProt O95180); test: Inhibitors of T-Type Calcium Channels. [Related pubchem assays (depositor defined):AID449739, AID463087, AID489005, AID493041, AID504579, AID504584, AID504619, AID504628]; format: functional
T2 sequence (O95180 whole entry): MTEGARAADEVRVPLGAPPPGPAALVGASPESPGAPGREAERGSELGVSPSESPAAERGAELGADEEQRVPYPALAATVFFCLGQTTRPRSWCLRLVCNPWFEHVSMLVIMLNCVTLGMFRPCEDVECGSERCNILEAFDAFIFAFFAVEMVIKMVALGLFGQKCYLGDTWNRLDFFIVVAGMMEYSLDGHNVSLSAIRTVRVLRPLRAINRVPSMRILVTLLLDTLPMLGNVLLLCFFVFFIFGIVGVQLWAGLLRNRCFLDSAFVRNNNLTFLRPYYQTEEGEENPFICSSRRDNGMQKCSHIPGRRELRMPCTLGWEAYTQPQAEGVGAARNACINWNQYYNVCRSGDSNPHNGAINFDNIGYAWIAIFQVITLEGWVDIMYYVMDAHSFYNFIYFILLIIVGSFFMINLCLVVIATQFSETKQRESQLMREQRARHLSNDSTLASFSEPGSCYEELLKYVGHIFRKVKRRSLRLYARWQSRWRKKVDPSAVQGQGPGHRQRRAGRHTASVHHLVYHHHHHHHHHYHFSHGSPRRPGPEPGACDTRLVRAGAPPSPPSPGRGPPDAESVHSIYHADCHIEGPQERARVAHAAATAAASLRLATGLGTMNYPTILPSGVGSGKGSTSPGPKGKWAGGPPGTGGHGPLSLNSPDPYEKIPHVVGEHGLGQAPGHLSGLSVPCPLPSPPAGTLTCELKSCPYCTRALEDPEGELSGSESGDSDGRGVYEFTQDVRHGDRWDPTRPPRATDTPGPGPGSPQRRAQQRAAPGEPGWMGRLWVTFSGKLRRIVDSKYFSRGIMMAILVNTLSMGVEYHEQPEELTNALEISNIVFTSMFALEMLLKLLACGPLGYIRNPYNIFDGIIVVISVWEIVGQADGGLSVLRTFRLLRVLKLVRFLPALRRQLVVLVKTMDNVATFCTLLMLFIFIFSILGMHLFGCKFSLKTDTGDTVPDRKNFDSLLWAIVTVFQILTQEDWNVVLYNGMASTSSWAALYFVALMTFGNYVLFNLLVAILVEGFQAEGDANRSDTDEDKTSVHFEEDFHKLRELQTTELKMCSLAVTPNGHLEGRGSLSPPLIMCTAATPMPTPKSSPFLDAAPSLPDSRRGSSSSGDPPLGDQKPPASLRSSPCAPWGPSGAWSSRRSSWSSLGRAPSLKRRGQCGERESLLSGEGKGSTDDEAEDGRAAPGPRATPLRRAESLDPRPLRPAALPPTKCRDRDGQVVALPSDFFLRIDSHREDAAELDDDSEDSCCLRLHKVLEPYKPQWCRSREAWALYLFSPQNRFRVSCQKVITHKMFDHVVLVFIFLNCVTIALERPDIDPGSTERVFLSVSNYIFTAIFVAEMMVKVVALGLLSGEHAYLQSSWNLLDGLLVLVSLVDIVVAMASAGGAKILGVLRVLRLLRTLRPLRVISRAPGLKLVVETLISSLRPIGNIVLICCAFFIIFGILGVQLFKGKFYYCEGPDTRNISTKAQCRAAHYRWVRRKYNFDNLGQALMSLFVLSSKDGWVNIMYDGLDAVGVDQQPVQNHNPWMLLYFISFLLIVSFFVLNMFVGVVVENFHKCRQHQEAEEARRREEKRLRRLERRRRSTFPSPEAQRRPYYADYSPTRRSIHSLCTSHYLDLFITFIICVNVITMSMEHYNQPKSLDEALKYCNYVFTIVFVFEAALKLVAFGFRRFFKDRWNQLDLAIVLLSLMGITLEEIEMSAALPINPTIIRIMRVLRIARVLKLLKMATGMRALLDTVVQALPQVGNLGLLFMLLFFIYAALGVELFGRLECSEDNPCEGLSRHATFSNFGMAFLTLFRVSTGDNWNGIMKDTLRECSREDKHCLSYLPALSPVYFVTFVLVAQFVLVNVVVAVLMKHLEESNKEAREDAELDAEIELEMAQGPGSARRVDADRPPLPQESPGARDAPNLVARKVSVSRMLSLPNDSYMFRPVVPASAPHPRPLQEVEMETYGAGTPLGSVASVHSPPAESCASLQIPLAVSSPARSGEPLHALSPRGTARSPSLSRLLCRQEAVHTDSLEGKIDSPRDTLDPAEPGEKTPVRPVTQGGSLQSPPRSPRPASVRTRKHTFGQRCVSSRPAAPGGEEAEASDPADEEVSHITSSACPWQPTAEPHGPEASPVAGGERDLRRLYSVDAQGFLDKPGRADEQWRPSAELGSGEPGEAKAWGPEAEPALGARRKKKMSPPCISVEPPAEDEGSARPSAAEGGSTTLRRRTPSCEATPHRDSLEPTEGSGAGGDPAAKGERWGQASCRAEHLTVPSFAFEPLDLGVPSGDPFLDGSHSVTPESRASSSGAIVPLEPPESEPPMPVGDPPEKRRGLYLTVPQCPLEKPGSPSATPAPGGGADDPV

Estrogen receptor beta = Estrogen receptor beta (Homo sapiens, UniProt Q92731);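 note: recombinant ER-beta bound to coactivator SRC1 peptide in presence of estradiol agonist; inhibitors block coactivator peptide binding and lower the FRET signal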
[8] = biological target: T2, Voltage-dependent T-type calcium channel subunit alpha-1H; format: functional
[9] = biological target: Acyl-homoserine lactone acylase PvdQ (Pseudomonas aeruginosa (strain LESB58), UniProt Q9I194); test: P. aeruginosa PvdQ acylase inhibitors, dose response, biochemical, fluorescence, plate reader and imaging, cherry-picks (AID 493231)
[10] = CRF-BP/CRF-R2 complex antagonists, dose response, cell-based, uHTS hits, 384-well (AID 651639); format: functional, Homo sapiens; settings: read-out: IC50_Mean
[11] = biological target: T3, Corticotropin-releasing factor receptor 2/Corticotropin-releasing factor-binding protein (Homo sapiens, UniProt P24387+Q13324); test: Dose Response confirmation of uHTS hits for small molecule antagonists of the CRF-binding protein and CRF-R2 receptor complex.; format: functional; settings: read-out: IC50_Mean
T3 sequence (Q13324 whole entry): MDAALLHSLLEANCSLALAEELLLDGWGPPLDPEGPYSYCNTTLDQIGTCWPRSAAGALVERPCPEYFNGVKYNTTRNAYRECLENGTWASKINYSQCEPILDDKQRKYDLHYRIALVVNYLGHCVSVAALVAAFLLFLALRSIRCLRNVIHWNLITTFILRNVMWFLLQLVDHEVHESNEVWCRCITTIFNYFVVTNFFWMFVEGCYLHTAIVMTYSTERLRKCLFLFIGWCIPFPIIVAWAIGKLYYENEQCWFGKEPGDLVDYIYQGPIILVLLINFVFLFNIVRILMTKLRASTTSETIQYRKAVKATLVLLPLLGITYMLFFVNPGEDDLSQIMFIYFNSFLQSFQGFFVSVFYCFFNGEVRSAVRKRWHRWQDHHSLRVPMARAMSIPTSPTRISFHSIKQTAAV
T3 sequence (P24387 whole entry): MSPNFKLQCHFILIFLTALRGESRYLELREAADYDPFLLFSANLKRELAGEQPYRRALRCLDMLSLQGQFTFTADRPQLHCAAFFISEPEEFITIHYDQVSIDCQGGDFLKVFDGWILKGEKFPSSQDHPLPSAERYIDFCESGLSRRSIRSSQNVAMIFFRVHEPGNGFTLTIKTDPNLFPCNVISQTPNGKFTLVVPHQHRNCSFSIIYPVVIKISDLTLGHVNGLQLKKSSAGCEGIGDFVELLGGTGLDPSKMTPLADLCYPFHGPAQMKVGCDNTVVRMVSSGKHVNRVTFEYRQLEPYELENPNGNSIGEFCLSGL

[12] = biological target: T3, Corticotropin-releasing factor receptor 2/Corticotropin-releasing factor-binding protein; test: activators of CRF receptor 2 with binding protein – uHTS hits, confirmation (AID 602473); format: functional; settings: read-out: EC50_Mean
[13] = biological target: T4, Eukaryotic translation initiation factor 2-alpha kinase 3 (Homo sapiens, UniProt Q9NZJ5); test: Counterscreen assay for PERK inhibitors: Dose response cell-based high throughput screening assay to measure inhibition of PERK at 6 hours. [Related pubchem assays: 1522, 1416 ]; format: functional
T4 sequence (Q9NZJ5 whole entry): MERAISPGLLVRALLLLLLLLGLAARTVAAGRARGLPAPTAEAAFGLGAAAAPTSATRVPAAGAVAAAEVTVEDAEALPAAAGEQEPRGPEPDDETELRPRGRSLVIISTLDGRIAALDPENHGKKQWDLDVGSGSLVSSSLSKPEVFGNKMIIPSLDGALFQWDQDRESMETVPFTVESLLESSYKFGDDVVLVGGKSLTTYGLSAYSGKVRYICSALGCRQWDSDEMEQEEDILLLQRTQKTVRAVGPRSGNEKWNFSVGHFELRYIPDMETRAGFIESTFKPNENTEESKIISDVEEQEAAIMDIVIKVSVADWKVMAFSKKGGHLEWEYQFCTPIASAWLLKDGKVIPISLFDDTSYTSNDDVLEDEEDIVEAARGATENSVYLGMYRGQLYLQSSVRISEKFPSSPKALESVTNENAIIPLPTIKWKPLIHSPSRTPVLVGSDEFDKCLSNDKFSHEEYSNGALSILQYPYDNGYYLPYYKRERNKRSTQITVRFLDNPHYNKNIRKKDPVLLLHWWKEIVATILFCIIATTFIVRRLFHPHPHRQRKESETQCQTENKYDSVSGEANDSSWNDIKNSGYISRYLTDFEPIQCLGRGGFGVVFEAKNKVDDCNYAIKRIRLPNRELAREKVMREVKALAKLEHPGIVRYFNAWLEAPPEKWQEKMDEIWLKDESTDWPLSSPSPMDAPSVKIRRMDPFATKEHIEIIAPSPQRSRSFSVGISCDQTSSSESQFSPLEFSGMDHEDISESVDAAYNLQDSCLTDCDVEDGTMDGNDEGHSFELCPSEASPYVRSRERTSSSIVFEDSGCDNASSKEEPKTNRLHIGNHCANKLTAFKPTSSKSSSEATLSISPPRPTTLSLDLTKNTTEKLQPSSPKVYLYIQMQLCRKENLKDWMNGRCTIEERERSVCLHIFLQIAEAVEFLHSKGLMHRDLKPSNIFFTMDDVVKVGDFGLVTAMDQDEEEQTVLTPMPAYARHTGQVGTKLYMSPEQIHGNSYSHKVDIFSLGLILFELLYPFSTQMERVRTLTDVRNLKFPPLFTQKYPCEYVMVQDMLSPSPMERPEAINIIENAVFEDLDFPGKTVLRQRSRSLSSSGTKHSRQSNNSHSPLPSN

[14] = biological target: T4, Eukaryotic translation initiation factor 2-alpha kinase 3; test: Dose response cell-based high-throughput screening assay to measure PERK inhibition. [Related pubchem assays: 1416 ]; format: functional
[15] = A cytotoxicity screen of small molecule inhibitors of the PhoP region in Salmonella typhi identified in the primary screen. [Related pubchem assays: 1850, 1864, 1985 ]; format: functional
Procathepsin L = Procathepsin L (Homo sapiens, UniProt P07711)
[16] = biological target: T5, RNA-binding protein pos-1 (Caenorhabditis elegans, UniProt G5EF15); test: inhibitors of POS-1/mex-3 RNA binding, dose response, biochemical, fluorescence polarization (AID 1964);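 note: purified POS-1 fused to maltose binding protein made in E. coli; potency of compounds blocking POS-1 binding to fluorescent RNA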
T5 sequence (G5EF15 whole entry): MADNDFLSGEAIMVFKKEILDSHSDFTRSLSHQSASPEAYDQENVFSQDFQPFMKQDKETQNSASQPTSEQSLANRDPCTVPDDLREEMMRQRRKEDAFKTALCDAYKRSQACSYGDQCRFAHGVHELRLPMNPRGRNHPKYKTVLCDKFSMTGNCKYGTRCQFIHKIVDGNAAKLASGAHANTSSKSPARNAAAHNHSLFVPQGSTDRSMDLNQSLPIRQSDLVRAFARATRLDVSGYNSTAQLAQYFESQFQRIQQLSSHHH

Large T antigen = Large T antigen (Simian virus 40, UniProt P03070); format: functional, Betapolyomavirus macacae;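 note: Confirmatory-stage PubChem screen for compounds that inhibit SV40 T antigen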
[17] = biological target: T6, Zinc finger protein mex-5 (Caenorhabditis elegans, UniProt Q9XUB2); test: MEX-5/TCR-2 RNA interaction inhibitors, dose response, biochemical, C. elegans, fluorescence polarization (AID 1960)
T6 sequence (Q9XUB2 whole entry): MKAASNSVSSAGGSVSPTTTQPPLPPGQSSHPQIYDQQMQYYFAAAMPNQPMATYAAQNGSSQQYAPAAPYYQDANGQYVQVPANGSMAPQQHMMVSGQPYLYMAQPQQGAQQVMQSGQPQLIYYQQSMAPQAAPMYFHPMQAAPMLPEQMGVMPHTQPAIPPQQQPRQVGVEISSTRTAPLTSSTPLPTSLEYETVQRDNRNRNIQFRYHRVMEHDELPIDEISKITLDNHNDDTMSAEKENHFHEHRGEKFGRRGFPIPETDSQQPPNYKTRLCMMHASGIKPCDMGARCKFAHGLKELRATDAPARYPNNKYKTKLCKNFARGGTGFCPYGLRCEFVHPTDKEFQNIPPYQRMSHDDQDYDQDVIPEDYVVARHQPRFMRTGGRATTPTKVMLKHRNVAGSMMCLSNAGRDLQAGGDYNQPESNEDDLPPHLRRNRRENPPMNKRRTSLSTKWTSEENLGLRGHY

Aspartyl aminopeptidase = Aspartyl aminopeptidase (Plasmodium falciparum 3D7, UniProt Q8I2J3)
[18] = biological target: Cyclin-dependent kinase 5/CDK5 activator 1 (Homo sapiens, UniProt Q00535); test: CDK5/p35 kinase inhibitors, dose response, biochemical, cherry-picked samples, set 2 (AID 504545)
Estrogen receptor = biological target: T7, Estrogen receptor (Homo sapiens, UniProt P03372); test: potentiators of ERα–SRC-1 coactivator binding, dose response, biochemical, TR-FRET, ERα LBD (AID 737)
T7 sequence (P03372 whole entry): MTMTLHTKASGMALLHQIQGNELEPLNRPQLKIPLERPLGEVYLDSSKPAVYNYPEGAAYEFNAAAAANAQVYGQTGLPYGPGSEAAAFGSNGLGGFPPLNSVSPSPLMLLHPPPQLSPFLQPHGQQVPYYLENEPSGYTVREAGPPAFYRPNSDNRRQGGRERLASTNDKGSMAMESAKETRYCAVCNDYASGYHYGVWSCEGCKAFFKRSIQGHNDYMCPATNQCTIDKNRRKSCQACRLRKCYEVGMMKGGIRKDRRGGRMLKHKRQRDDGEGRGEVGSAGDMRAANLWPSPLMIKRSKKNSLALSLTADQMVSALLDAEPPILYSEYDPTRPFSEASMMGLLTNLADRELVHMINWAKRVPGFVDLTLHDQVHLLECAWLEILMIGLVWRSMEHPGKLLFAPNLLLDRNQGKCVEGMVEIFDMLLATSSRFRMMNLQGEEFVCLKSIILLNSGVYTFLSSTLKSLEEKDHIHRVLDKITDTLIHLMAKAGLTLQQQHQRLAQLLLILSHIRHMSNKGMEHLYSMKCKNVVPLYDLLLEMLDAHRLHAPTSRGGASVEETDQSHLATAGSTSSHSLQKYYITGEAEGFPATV

CCN(CC)C(=O)c1ccc(/C=C/c2c[nH]c3ccccc23)[n+](C)c1
IC50 (Insulin-degrading enzyme): 16.1 µM (not active)
IC50 [1]: > 55.7 µM (not active)
IC50 [2]: 2.1 µM (active)
IC50 [3]: 1.96 µM (active)

CSC(S)=NN=Cc1ccc(Br)cc1
IC50 [4]: > 20 µM (inactive)
IC50 (Tumor necrosis factor): > 20 µM (inactive)
IC50 [5]: > 20 µM (inactive)
IC50 (HEK293): > 20 µM (inactive)

CC(C)=CCc1c(O)cc(O)c2c1O[C@H](c1ccccc1)CC2=O [GLABRANIN]
AC50 (Cytochrome P450 2D6): 31.6 µM (inconclusive)

O=C(Nc1ccc(Cl)c(Cl)c1)c1ccccn1
EC50 [6]: 1.25 µM (active)

COc1ccc(-c2noc(CCC(=O)N3CCN(c4cccc(C(F)(F)F)c4)CC3)n2)cc1
EC50 [7]: 4.32 µM (active)
IC50 (Estrogen receptor beta): > 50 µM (not active)
EC50 [8]: 1.62 µM (active)

O=[N+]([O-])c1cccnc1Sc1ccc(Cl)cc1
AC50 [9]: 30.1 µM (active)
IC50 [10]: 3.1 µM (active)
IC50 [11]: < 0.368 µM (active)
EC50 [12]: > 53 µM (inactive)

C[C@]12CS(=O)(=O)C[C@H]1SC(=S)N2c1ccccc1
EC50 [13]: > 55.7 µM (not active)
EC50 [14]: > 55.7 µM (not active)

CC(C)c1ccc(NC(=O)CSc2nnc(-c3ccccn3)n2C)cc1
EC50 [15]: > 50 µM (active)

CN1CCc2cccc3c2[C@H]1Cc1ccc(O)c(O)c1-3 [APOMORPHINE]
IC50 (Procathepsin L): > 59.6 µM (not active)
EC50 [16]: > 300 µM (inconclusive)
IC50 (Large T antigen): 20.2 µM (active)
EC50 [17]: 3.29 µM (active)
IC50 (Aspartyl aminopeptidase): 3.67 µM (active)

Nc1nc(Nc2cccc(Cl)c2)nc(NCCO)c1[N+](=O)[O-]
AC50 [18]: 8.21 µM (active)

Cc1nn(-c2ccc(Cl)cc2)c2sc(C(=O)N3CCN(c4ccccn4)CC3)cc12
EC50 (Estrogen receptor): 12.8 µM (active)
